Assay results as given in ChEMBL document CHEMBL1201862, “PubChem BioAssay data set” (2004).
Values belong to the molecule of their own block, whether it stands above or below them. The source made the active and inactive calls.

How the values were obtained:
[1] = HEK-293T viability loss after treatment – luminescence, T-cell screen hits, cytotoxicity control for TCR NF-kB inhibitor project, dose response (AID 489026); assay type: functional, cell-based;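 further: cells exposed to compound about 14 hours before the viability readout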
[2] = biological target: T1, Microphthalmia-associated transcription factor (Homo sapiens, UniProt O75030); assay: reducers of TRPM1 reporter luminescence, concentration series – cell-based, SK-MEL-5, cherry-picked, set 3, MITF inhibitor project, dose response (AID 493073); assay type: functional;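 further: SK-MEL-5 melanoma cells with luciferase driven by the MITF target TRPM1 promoter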
T1 sequence (O75030 whole entry): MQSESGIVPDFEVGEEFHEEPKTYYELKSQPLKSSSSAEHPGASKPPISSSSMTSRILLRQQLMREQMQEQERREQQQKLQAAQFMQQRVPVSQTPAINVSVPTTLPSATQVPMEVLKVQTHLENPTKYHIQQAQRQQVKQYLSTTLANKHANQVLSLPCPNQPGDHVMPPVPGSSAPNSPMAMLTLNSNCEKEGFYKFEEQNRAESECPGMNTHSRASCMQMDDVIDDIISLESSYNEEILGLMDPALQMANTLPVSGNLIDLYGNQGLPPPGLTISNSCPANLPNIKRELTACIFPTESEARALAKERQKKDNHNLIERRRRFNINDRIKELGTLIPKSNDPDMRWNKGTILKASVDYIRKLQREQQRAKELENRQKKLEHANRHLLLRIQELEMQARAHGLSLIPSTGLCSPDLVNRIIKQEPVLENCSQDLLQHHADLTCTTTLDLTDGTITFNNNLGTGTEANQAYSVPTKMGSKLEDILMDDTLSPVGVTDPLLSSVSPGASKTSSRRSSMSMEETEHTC

Vero = assay: inhibition of WNV-induced cytopathic effect – cell-based, CPE readout (AID 1621); assay type: functional; details: Chlorocebus sabaeus
NADPH oxidase 1 = NADPH oxidase 1 (Homo sapiens, UniProt Q9Y5S8); assay: Late-stage luminescence-based cell-based dose response assay to identify inhibitors of NADPH oxidase 1 (NOX1): Synthesized analogs.; assay type: functional
Prothrombin = Prothrombin (Homo sapiens, UniProt P00734); assay: Thrombin 1536 HTS Dose Response Confirmation. [Related pubchem assays: 1046 (Thrombin 1536 HTS; hits were confirmed in this assay)]; assay type: functional

Sequence of NADPH oxidase 1 (Q9Y5S8 whole entry): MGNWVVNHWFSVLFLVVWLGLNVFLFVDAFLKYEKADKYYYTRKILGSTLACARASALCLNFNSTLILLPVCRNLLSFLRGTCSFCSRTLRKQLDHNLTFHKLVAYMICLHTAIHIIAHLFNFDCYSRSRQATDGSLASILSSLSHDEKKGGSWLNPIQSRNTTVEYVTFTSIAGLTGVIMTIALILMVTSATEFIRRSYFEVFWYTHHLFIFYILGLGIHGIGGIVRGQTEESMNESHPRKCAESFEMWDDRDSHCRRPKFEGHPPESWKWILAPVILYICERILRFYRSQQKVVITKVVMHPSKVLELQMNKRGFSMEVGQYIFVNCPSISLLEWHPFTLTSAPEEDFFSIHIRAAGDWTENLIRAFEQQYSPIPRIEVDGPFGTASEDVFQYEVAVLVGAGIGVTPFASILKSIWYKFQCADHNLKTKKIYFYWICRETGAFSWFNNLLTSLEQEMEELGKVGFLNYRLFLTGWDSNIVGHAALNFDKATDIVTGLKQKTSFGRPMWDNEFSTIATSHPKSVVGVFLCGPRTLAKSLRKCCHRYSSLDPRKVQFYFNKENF

Structure (SMILES): CC(C)c1oc(=O)cc2c1[C@@H](O)[C@H]1OC(=O)[C@@]3(C)C[C@@H](O)[C@@H](O)[C@@]2(C)C13 (stereo not given in full)
IC50 [1]: > 80000 nM (inactive)
AC50 [2]: 1630 nM (active)
IC50 (Vero): 30500 nM (active)

IC50 (NADPH oxidase 1): 305 nM (active)
Structure (SMILES): CC(=NNc1cccc(C(=O)O)c1)c1ccc2c(c1)Nc1ccccc1S2

IC50 (Prothrombin): 955 nM (active)
Structure (SMILES): COc1ccc(C(=O)n2c(SC)nc3cc4c(cc32)OCCO4)cc1
